{"source": "patent US8957022B2", "about": "“Multimeric tie 2 agonists and uses thereof in stimulating angiogenesis” (Sunnybrook Health Sciences Centre, priority 2006, dated 2015)", "key": {"[1]": {"tested_on": "B6.Cg-m(+/+)Lepr(db)/J (db/db) mice", "test": "Excisional wound healing in diabetic mice, topical application", "type": "in vivo, mouse", "conditions": "bFGF 10 μg/ml", "protocol": "Pathogen free, nine week old B6.Cg-m(+/+)Lepr(db)/J (db/db) mice were purchased from Jackson Laboratories. Circular, full excisional, 6 mm diameter wounds were made, according to animal committee approval guidelines, equal distant apart on the dorsal side of the mice. Various factors were suspended in sterile Intrasite Topical Gel (Smith and Nephew) at noted concentrations. Treatments were as follows: Vehicle n=8, bFGF (10 μg/ml) n=8, clustered Vasculotide (20 nM) n=4, clustered Vasculotide (5 nM) n=4. Preparations were applied at day 0 (time of wounding), day 2, 4 and 6. Standardized images were taken on days 0, 2, 4, 6 and 7 using a Canon EOS digital Rebel camera. Image J (NIH) was used to manually outline wound perimeter from which total pixel counts (wound area) were determined. Mice were sacrificed on day 7 and full wound beds including margin were excised and fixed in 4% PFA. Wounds were cut in half at the widest point and each half was prepared for either paraffin or frozen sections. Wax sections were processed according to standard protocols for H&E and Masson's Trichrome stain. Images were captured using a Leica DMLS compound light microscope and Pixel Link camera at 5× and 20×. Student's t test was used to test the statistical significance.\nFor histological scoring, sections were fixed in 4% paraformaldehyde, embedded in paraffin and sectioned and stained with H & E and Masson's trichrome. Sections were evaluated by a pathologist for re-epithelialization, granulation tissue formation, and inflammation, with criteria used for scoring skin as follows:\n• 0—none • 1—minimal (0-20% regrowth from wound margins) • 2—mild (25% to 50% regrowth) • 3—moderate (>50% regrowth, up to 100% but not >2 cells thick along length) • 4—complete regrowth (epithelium>1 cell thick along length, keratinized) Granulation Tissue (GT) and Neovascularization: • 0—none • 1—minimal (1-3 small, isolated islands of GT at margins of defect) • 2—mild (multifocal, patchy islands of GT underlying tissue defect, <10 new blood vessels) • 3—moderate (locally extensive bands of GT underlying length of defect) • 4—marked (dense bands of GT at margins and underlying length of defect with collagen fibrils and numerous blood vessels) Inflammation (within Defect): • 0—none • 1—minimal (a few scattered neutrophils at margins of defect) • 2—mild (multifocal aggregates of up to 5 neutrophils underlying defect) • 3—moderate (multifocal aggregates of up to 10 neutrophils and occasional macrophages, minimal to mild edema) • 4—marked (locally extensive, dense neutrophilic infiltrates with lesser numbers of macrophages, mild-moderate edema)"}, "[2]": {"tested_on": "CD1 mice", "test": "Matrigel plug angiogenesis assay", "type": "in vivo, mouse", "protocol": "To further examine the in vivo angiogenic potential of Vasculotide, a Matrigel assay was performed. More specifically, growth factor reduced Matrigel (BD Biosciences) was impregnated with either clustered Vasculotide or one of several different control factors. These Matrigel samples were injected subcutaneously into the flank region of 3 month old CD1 mice. 14 days post implantation and immediately prior to sacrifice, FITC lectin (100 μg) was injected IV and allowed to circulate for 10 minutes, to facilitate vessel identification and quantification. Plugs were surgically resected and fixed in 4% paraformaldehyde (PFA) for 16 h. Images of vascular topology were taken using a Zeiss dissecting microscope at 4× magnification. Upon fixing, all plugs were whole mount stained with anti-Sma1-Cy3. Plugs were analyzed on a Zeiss Axiovert 100 M confocal microscope (Carl Zeiss) for three dimensional image reconstruction and photos were processed using LSM Image Browser and Adobe Photoshop 7.0. Morphometric quantification of vessel characteristics was performed by skeletonizing confocal image projections with Image Processing Tool Kit 5.0 (IPTK 5.0). Student's t test was used to test the statistical significance with a 95% confidence interval. All experiments were performed with three replicates each, with at least 5 random image stacks.\nTo more fully address and assign quantitative vessel parameters to the different treatment groups, the plugs were fixed and interrogated with laser confocal microscopy analysis combined with post processing image analysis (Image Processing Tool Kit 5.0, Reindeer Graphics, N.C.). Vessel parameters, including length, number and branch points (nodes) were quantified on at least six representative fields. Statistical analysis was performed by way of unpaired Student's t test. Bar graphs of the number of vessels, vessel length and number of nodes, for each treatment group, are shown in FIGS. 3A, 3B and 3C, respectively. It is noted that poor perfusion of FITC-lecithin into mice harboring 20 nM clustered Vasculotide plus VEGF plugs prevented statistical analysis, therefore bars are the mean of two separate fields. All other bars shown represent mean+/−SD.\nAng 1 has been reported to potentiate the recruitment of myogenic support cells (Suri, C. et al. (1996) Cell 87:1171-1180) and inhibit VEGF induced vascular permeability through mechanisms that are not well understood (Thurston, G. et al. (2000) Nat. Med. 6:460-463). To determine if Vasculotide, like Ang 1, was capable of initiating pericyte recruitment, whole mount immunofluorescence was performed against smooth muscle actin 1 (Sma1). […] Sma 1 staining was tightly associated with the exterior of the vessels and was enriched on larger vessels."}, "[3]": {"tested_on": "HUVEC", "test": "Serum withdrawal-induced cell death, Cell Death ELISA", "type": "cell-based, human", "conditions": "F12 plus 0.1% FBS, 16 hours; clustered Vasculotide at 500 pM (p=0.002) vs non-treated cells", "protocol": "Based on the fact that clustered Vasculotide strongly activates the anti apoptotic protein AKT (see Example 3), the ability of Vasculotide to protect ECs from serum withdrawal-induced death was examined. To do so, HUVEC were maintained in F12 media plus 0.1% FBS for 16 hours in the presence of various concentrations of unclustered or clustered Vasculotide, followed by analysis of cell apoptosis via cell death ELISA. Analysis of apoptosis was performed using Cell Death ELISA Plus (Roche) according to manufacturers' specifications. The results are shown in FIG. 2A, in which values were normalized to basal levels of cell death for HUVECs maintained in full 10% FBS, growth factor supplemented F12 media. The results shown represent the mean of three replicates plus or minus 1 SD. Student's T-test was used for statistical analysis with P value indicated."}, "[4]": {"target": "Tie 2 (Homo sapiens, UniProt Q02763)", "sequence (Q02763 23-1124)": "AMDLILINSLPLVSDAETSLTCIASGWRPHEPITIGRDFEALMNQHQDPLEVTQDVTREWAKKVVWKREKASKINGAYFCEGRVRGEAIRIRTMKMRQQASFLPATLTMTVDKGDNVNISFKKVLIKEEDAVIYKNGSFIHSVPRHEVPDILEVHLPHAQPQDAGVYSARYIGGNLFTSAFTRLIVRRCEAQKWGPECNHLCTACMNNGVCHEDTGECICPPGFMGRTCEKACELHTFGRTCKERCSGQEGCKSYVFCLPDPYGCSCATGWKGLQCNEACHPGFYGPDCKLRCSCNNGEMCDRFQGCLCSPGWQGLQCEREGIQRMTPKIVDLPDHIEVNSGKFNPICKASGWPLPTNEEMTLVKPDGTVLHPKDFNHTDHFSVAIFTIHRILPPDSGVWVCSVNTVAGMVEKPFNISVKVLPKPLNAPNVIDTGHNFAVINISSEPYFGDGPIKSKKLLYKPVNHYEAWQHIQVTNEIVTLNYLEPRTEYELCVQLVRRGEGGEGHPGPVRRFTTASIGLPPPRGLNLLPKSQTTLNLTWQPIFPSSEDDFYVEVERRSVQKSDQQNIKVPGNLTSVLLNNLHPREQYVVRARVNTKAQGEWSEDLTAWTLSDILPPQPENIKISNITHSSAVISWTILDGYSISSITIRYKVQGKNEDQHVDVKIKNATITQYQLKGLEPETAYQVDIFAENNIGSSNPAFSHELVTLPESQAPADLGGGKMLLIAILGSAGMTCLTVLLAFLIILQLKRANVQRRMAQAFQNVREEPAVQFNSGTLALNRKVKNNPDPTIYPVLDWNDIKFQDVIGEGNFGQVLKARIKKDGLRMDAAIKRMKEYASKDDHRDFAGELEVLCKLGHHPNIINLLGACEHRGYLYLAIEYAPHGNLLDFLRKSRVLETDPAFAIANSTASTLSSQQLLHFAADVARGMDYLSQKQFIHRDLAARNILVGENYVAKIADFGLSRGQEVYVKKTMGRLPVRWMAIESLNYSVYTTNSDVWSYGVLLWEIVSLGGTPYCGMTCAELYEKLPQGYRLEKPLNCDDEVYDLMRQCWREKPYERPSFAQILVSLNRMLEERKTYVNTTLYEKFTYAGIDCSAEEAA", "test": "Tie 2 activation (pY992 Tie 2 immunoblot) in HUVEC", "type": "cell-based", "design": "downstream signalling pathways in human umbilical vein endothelial cells (HUVEC) (Cambrex, N.J.); host or cells: HUVEC, passage 3-9", "conditions": "avidin alone and unclustered Vasculotide", "protocol": "Having established that Vasculotide was able to bind Tie 2 (see Example 2), the ability of Vasculotide, when clustered with avidin in a 4:1 ratio (Vasculotide:avidin), to activate the Tie 2 receptor was tested by examining several well established downstream signalling pathways in human umbilical vein endothelial cells (HUVEC) (Cambrex, N.J.). Such signalling pathways are described in, for example, Kim, I. et al. (2000) Circ. Res. 9:952-959; Fujikawa, K. et al. (1999) Exp. Cell. Res. 2:663-672; Babaei, S. et al. (2003) Am. J. Pathol. 6:1927-1936.\nHUVEC were grown on 6-well or 10 cm plates (Nunc) coated with gelatin (Sigma). HUVEC were cultured in F12 growth medium containing 10% fetal bovine serum (FBS), 0.1 mg/ml heparin sulphate, 1× penicillin, 1× streptomycin, 1× glutamine, VEGF 10 ng/ml, EGF 10 ng/ml, bFGF 5 ng/ml. All HUVEC were used between passage 3-9.\n(§1) HUVEC were stimulated with one of either Ang 1 (R&D Systems), Vasculotide, avidin or clustered Vasculotide (preclustered with a 4:1 molar ratio of peptide:avidin in PBS for 2 hours at 4° C.) at various doses. Stimulations with Vasculotide were performed in full serum containing growth media for 15 minutes unless otherwise indicated. Cell lysate preparations and immunoblot analysis were performed by standard methods. Antibodies used for immunoblotting (in this and/or subsequent Examples) were monoclonal anti Tie 2 (Pharminogen), polyclonal anti pY992 Tie 2, (Cell Signaling Technology), polyclonal anti MAPK (Cell Signaling Technology), monoclonal anti phospho MAPK (Cell Signaling Technology), polyclonal anti AKT (Cell Signaling Technology), polyclonal anti pS473 AKT (Cell Signaling Technology), monoclonal anti pS1177 eNOS (BD Biosciences), polyclonal anti pY397 FAK (Biosource), polyclonal anti FAK (Santa Cruz), polyclonal anti smooth muscle actin-Cy3 direct conjugate (Dako), polyclonal anti PECAM (Pharminogen) and polyclonal anti smooth muscle actin (Sigma).\nTo examine Tie 2 activation kinetics, HUVEC were stimulated with native Ang 1 or clustered Vasculotide for various times. Stimulation was performed in 10% FBS. […] Overall, activation of the receptor by either Ang 1 or clustered Vasculotide followed a very similar time course with phosphorylation returning to almost basal levels sometime after 2 hours."}, "[5]": {"tested_on": "HUVEC", "test": "Modified Boyden chamber migration assay", "type": "cell-based, human", "conditions": "as in Example 4", "description": "To test if Vasculotide, like Ang 1, was capable of promoting these processes, the effect of Vasculotide on EC migration was tested using a modified Boyden chamber assay. HUVEC were seeded at a density of 8.4×10^4 cells in 500 μl of F12 growth media plus 0.1% FBS in the upper chamber of an 8 μm pore size modified Boyden chamber (Falcon). 500 μl of F12 media plus 0.1% FBS plus various growth factors (Ang 1 (R& D Systems), unclustered or clustered Vasculotide, VEGF (R&D Systems) or clustered Vasculotide in combination with VEGF) or controls were placed in the bottom chamber. Cells were allowed to migrate for 4 hours in a 37° C., 5% CO2 incubator. Nonmigrating cells were scraped off, and filters were fixed in 100% methanol for 5 minutes, stained with Harris' Hematoxylin (BDH) for 10 minutes and washed twice with tap water for 3 minutes each. Filters were then mounted using Aquapolymount mounting medium. Cells that had migrated more than 50% of the way through the pore were scored as positive for migration.\nStudent's t test was used to test the statistical significance with a 95% confidence interval. Stimulations were performed in triplicate and migrating cells in 6 microscopic fields per replicate were counted."}, "[6]": {"tested_on": "MMP2", "test": "Gelatin zymography of HUVEC conditioned media", "type": "cell-based, human", "conditions": "as in Example 4", "protocol": "In vivo, ECs can not migrate until they secrete enzymes necessary to break down components of the extra cellular matrix. Gelatin zymography was employed to determine if clustered Vasculotide promoted secretion of MMP2. To perform the zymography, HUVEC were cultured in F12 media plus 0.1% FBS and stimulated for 16 h with VEGF, unclustered Vasculotide or clustered Vasculotide at various concentrations. Conditioned media was centrifuged to remove cellular debris and prepared for gel electrophoresis using non-reducing conditions. Gels were washed twice for 30 minutes in 2.5% Triton X-100 to remove sodium dodecyl sulfate and were then incubated in substrate buffer (50 mmol/L Tris-HCl, pH 8.8, 5 mmol/L CaCl2) for 16 hours at 37° C. Gels were then stained with 0.5% Coomassie blue in 30% methanol/10% acetic acid for 2 hours at room temperature and destained in 50% methanol/10% acetic acid. The presence of metalloproteinases was indicated by unstained proteolytic zones in the gel."}, "[7]": {"tested_on": "focal adhesion kinase (FAK)", "test": "FAK activation in HUVEC (pY397 FAK immunoblot)", "type": "cell-based, human", "conditions": "time course", "protocol": "as §1\nTo examine Tie 2 activation kinetics, HUVEC were stimulated with native Ang 1 or clustered Vasculotide for various times. Stimulation was performed in 10% FBS. […]"}}, "note": "Where no end group is shown, it is not given here. Side-chain parts run from the residue outwards. The star is where a group is joined. Biotin = O=C1N[C@H]2[C@H](CS[C@H]2CCCCC(=O)*)N1; PEO = not defined here", "data": [{"molecule": "bFGF: growth factor used as comparator at 10 μg/ml in the wound gel [reference compound]", "values": [{"measurement": "Wound closure by day 7", "setting": "[1]", "value": "statistically indistinguishable from clustered Vasculotide at 20 nM or 5 nM"}, {"measurement": "Histological differences between vehicle and bFGF", "setting": "[1]; p=0.0486", "value": "existed only at the level of inflammation"}]}, {"molecule": "VEGF [reference compound]", "values": [{"measurement": "Nature of vessels (arborization, tortuosity)", "setting": "[2]; 14 days post implantation", "value": "highly tortuous"}, {"measurement": "Vessel growth in plugs (confocal analysis)", "setting": "[2]; 14 days post implantation, FITC lectin", "value": "robust induction of angiogenesis"}, {"measurement": "Angiogenic response in the membranous capsule surrounding the plugs", "setting": "[2]; 14 days post implantation, subcutaneous", "value": "distinct and robust angiogenic response"}, {"measurement": "Smooth muscle actin 1 (Sma1) staining, pericyte recruitment", "setting": "[2]; whole mount immunofluorescence", "value": "relative absence of Sma1 positive staining cells"}]}, {"molecule": "avidin: tetramer agent with four binding sites for biotin, tested alone as control [reference compound]", "values": [{"measurement": "Apoptosis / survival after serum withdrawal", "setting": "[3]", "value": "no effect on survival"}, {"measurement": "Tie 2 phosphorylation without preclustering", "setting": "[4]", "value": "only when preclustered with avidin was Vasculotide able to stimulate Tie 2 phosphorylation"}]}, {"molecule": "tetrameric GA3-containing compound: GA3 peptide (SEQ ID NO: 4) conjugated to PEO-maleimide-biotin, clustered with avidin in a 4:1 ratio (C([maleimide-PEO-Biotin])WTIIQRREDGSVDFQRTWKEYK; reading uncertain; also: avidin tetramer, 4 peptides per avidin, printed as Cys-Trp-Thr-Ile-Ile-Gln-Arg-Arg-Glu-Asp-Gly-Ser-Val-Asp-Phe-Gln-Arg-Thr-Trp-Lys-Glu-Tyr-Lys)", "values": [{"measurement": "Endothelial cell migration (GA3 tetramer)", "setting": "[5]", "value": "effective in promoting endothelial cell migration"}, {"measurement": "MMP2 release (GA3 tetramer)", "setting": "[6]", "value": "effective in promoting MMP2 release"}]}, {"molecule": "Ang 1: angiopoietin 1, protein growth factor ligand for Tie 2 (R&D Systems) (protein, UniProt Q15389 16-498, looked up) Angiopoietin-1: HIGCSNQRRSPENSGRRYNRIQHGQCAYTFILPEHDGNCRESTTDQYNTNALQRDAPHVEPDFSSQKLQHLEHVMENYTQWLQKLENYIVENMKSEMAQIQQNAVQNHTATMLEIGTSLLSQTAEQTRKLTDVETQVLNQTSRLEIQLLENSLSTYKLEKQLLQQTNEILKIHEKNSLLEHKILEMEGKHKEELDTLKEEKENLQGLVTRQTYIIQELEKQLNRATTNNSVLQKQQLELMDTVHNLVNLCTKEGVLLKGGKREEEKPFRDCADVYQAGFNKSGIYTIYINNMPEPKKVFCNMDVNGGGWTVIQHREDGSLDFQRGWKEYKMGFGNPSGEYWLGNEFIFAITSQRQYMLRIELMDWEGNRAYSQYDRFHIGNEKQNYRLYLKGHTGTAGKQSSLILHGADFSTKDADNDNCMCKCALMLTGGWWFDACGPSNLNGMFYTAGQNHGKLNGIKWHYFKGPSYSLRSTTMMIRPLDF", "values": [{"measurement": "Activation of FAK", "setting": "[7]", "value": "time dependently activated FAK"}]}]}
